PMC9898036, “VIP152 is a selective CDK9 inhibitor with pre-clinical in vitro and in vivo efficacy in chronic lymphocytic leukemia” (Leukemia, 2022)
Where two headings read alike, the source gives them in different places.

How the values were obtained:
Experiment in all cases: DiscoverX KINOMEscan kinase profiling (468 assays)
Type in all cases: binding
human kinome [1] = target: human kinome (Homo sapiens, UniProt P07948); conditions: LYN; 100 nM; read-out: Percent Control
Description: (§1) Kinomescan Kinase Profiling Assay
(§2) Kinomescan Assay was performed at DiscoverRX and described in Fabian, et al. 2005, Nat.
(§3) Biotechnol. In brief, kinases were produced and subsequently tagged with DNA for qPCR detection.
(§4) Streptavidin-coated magnetic beads were bound to biotinylated kinase ligands to serve as a solid support.
(§5) VIP152 was dissolved in DMSO and tested across a 10 serial threefold dilution set and compared to a test
(§6) compound and a DMSO control.
(§7) Kinome map was produced via TreeSpot
(§8) Analysis from DiscoverRX. […]

human kinome [2] = target: human kinome (Homo sapiens, UniProt P31751); conditions: AKT2; 100 nM; read-out: Percent Control
Description: as §1, §2, §3, §4, §5, §6, §7, §8

human kinome [3] = target: human kinome (Homo sapiens, UniProt Q13188); conditions: MST2 (Entrez STK3); 100 nM; read-out: Percent Control
Description: as §1, §2, §3, §4, §5, §6, §7, §8

human kinome [4] = target: human kinome (Homo sapiens, UniProt O75582); conditions: compound concentration 1000 nM, read-out: Percent Control
Description: as §1, §2, §3, §4, §5, §6, §7, §8

human kinome [5] = target: human kinome (Homo sapiens, UniProt O15530); conditions: read-out: Percent Control
Description: as §1, §2, §3, §4, §5, §6, §7, §8

human kinome [6] = target: human kinome (Homo sapiens, UniProt Q13882); conditions: BRK (Entrez PTK6); 100 nM; read-out: Percent Control
Description: as §1, §2, §3, §4, §5, §6, §7, §8

human kinome [7] = target: human kinome (Homo sapiens, UniProt P36507); conditions: MEK2 (Entrez MAP2K2); 100 nM; read-out: Percent Control
Description: as §1, §2, §3, §4, §5, §6, §7, §8

human kinome [8] = target: human kinome (Homo sapiens, UniProt Q9UM73, L1196M); conditions: ALK(L1196M); 100 nM; read-out: Percent Control
Description: as §1, §2, §3, §4, §5, §6, §7, §8

human kinome [9] = target: human kinome (Homo sapiens, UniProt Q14004); conditions: read-out: Percent Control
Description: as §1, §2, §3, §4, §5, §6, §7, §8

human kinome [10] = target: human kinome (Homo sapiens, UniProt Q9UL54); conditions: kinase TAOK2 (Entrez TAOK2); compound concentration 1000 nM; read-out: Percent Control
Description: as §1, §2, §3, §4, §5, §6, §7, §8

human kinome [11] = target: human kinome (Homo sapiens, UniProt Q5VT25); conditions: MRCKA (Entrez CDC42BPA); 100 nM; read-out: Percent Control
Description: as §1, §2, §3, §4, §5, §6, §7, §8

human kinome [12] = target: human kinome (Homo sapiens, UniProt O96013); conditions: read-out: Percent Control
Description: as §1, §2, §3, §4, §5, §6, §7, §8

human kinome [13] = target: human kinome (Homo sapiens, UniProt P29597); conditions: compound concentration 1000 nM, read-out: Percent Control
Description: as §1, §2, §3, §4, §5, §6, §7, §8

human kinome [14] = target: human kinome (Homo sapiens, UniProt O15111); conditions: IKK-alpha (Entrez CHUK); 100 nM; read-out: Percent Control
Description: as §1, §2, §3, §4, §5, §6, §7, §8

human kinome [15] = target: human kinome (Homo sapiens, UniProt Q8N4C8); conditions: MINK (Entrez MINK1); 100 nM; read-out: Percent Control
Description: as §1, §2, §3, §4, §5, §6, §7, §8

human kinome [16] = target: human kinome (Homo sapiens, UniProt O95835); conditions: LATS1; 100 nM; read-out: Percent Control
Description: as §1, §2, §3, §4, §5, §6, §7, §8

human kinome [17] = target: human kinome (Homo sapiens, UniProt Q9H4A3); conditions: kinase WNK1 (Entrez WNK1); compound concentration 1000 nM; read-out: Percent Control
Description: as §1, §2, §3, §4, §5, §6, §7, §8

human kinome [18] = target: human kinome (Homo sapiens, UniProt Q8TBX8); conditions: read-out: Percent Control
Description: as §1, §2, §3, §4, §5, §6, §7, §8

human kinome [19] = target: human kinome (Homo sapiens, UniProt Q14012); conditions: CAMK1; 100 nM; read-out: Percent Control
Description: as §1, §2, §3, §4, §5, §6, §7, §8

human kinome [20] = target: human kinome (Homo sapiens, UniProt Q9Y2U5); conditions: MAP3K2; 100 nM; read-out: Percent Control
Description: as §1, §2, §3, §4, §5, §6, §7, §8

human kinome [21] = target: human kinome (Homo sapiens, UniProt O96017); conditions: CHEK2; 100 nM; read-out: Percent Control
Description: as §1, §2, §3, §4, §5, §6, §7, §8

human kinome [22] = target: human kinome (Homo sapiens, UniProt P42336, E545A); conditions: read-out: Percent Control
Description: as §1, §2, §3, §4, §5, §6, §7, §8

human kinome [23] = target: human kinome (Homo sapiens, UniProt P43405); conditions: kinase SYK (Entrez SYK); compound concentration 1000 nM; read-out: Percent Control
Description: as §1, §2, §3, §4, §5, §6, §7, §8

human kinome [24] = target: human kinome (Homo sapiens, UniProt P27361); conditions: ERK1 (Entrez MAPK3); 100 nM; read-out: Percent Control
Description: as §1, §2, §3, §4, §5, §6, §7, §8

human kinome [25] = target: human kinome (Homo sapiens, UniProt O43283); conditions: LZK (Entrez MAP3K13); 100 nM; read-out: Percent Control
Description: as §1, §2, §3, §4, §5, §6, §7, §8

human kinome [26] = target: human kinome (Homo sapiens, UniProt Q00535); conditions: CDK5; 100 nM; read-out: Percent Control
Description: as §1, §2, §3, §4, §5, §6, §7, §8

human kinome [27] = target: human kinome (Homo sapiens, UniProt Q6ZN16); conditions: MAP3K15; 100 nM; read-out: Percent Control
Description: as §1, §2, §3, §4, §5, §6, §7, §8

human kinome [28] = target: human kinome (Homo sapiens, UniProt P43403); conditions: kinase ZAP70 (Entrez ZAP70); compound concentration 1000 nM; read-out: Percent Control
Description: as §1, §2, §3, §4, §5, §6, §7, §8

human kinome [29] = target: human kinome (Homo sapiens, UniProt P17612); conditions: read-out: Percent Control
Description: as §1, §2, §3, §4, §5, §6, §7, §8

Chain of human kinome (Homo sapiens, UniProt P42336, E545A) (P42336 whole entry E545A): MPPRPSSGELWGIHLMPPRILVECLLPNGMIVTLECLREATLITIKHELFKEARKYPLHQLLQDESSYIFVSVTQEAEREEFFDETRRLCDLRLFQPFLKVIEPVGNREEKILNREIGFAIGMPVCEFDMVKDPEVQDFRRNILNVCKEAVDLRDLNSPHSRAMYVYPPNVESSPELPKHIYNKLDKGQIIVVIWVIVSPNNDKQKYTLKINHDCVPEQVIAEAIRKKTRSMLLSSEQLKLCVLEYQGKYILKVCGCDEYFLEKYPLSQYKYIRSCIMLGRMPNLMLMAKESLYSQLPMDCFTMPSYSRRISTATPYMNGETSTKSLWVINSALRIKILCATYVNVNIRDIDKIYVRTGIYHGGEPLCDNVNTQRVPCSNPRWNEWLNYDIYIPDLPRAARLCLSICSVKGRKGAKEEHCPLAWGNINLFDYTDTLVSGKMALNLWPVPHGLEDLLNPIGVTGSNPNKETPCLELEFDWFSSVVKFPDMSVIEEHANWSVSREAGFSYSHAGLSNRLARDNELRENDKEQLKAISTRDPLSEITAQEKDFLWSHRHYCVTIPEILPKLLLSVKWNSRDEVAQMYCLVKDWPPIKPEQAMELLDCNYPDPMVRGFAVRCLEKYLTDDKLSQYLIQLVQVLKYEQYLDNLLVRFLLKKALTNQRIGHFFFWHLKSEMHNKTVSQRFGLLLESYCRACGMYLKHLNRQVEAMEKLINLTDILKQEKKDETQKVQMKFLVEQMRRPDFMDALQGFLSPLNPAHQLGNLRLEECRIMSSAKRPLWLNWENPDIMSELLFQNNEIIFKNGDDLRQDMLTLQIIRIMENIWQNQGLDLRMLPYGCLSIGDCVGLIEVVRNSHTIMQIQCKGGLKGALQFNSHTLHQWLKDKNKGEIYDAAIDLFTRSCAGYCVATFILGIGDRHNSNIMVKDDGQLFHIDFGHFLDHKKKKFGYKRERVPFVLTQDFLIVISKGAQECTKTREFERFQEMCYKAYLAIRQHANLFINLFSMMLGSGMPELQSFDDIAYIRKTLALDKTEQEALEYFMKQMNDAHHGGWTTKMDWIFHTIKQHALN
Chain of human kinome (Homo sapiens, UniProt O15530) (O15530 whole entry): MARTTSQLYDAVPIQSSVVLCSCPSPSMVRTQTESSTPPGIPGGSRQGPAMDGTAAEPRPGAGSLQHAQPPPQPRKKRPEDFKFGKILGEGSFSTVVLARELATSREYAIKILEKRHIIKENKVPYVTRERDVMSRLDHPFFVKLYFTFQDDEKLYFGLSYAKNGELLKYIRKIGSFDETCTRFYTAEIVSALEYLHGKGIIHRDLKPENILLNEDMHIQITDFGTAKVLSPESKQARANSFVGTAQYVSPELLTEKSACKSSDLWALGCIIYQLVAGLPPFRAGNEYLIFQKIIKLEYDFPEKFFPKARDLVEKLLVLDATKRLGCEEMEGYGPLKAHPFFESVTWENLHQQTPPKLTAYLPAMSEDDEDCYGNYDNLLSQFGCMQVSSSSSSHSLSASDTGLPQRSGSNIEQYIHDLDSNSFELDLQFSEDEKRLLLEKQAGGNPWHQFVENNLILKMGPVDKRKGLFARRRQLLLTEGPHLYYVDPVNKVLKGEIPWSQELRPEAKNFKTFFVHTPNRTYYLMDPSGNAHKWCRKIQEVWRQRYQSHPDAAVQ
Chain of human kinome (Homo sapiens, UniProt O96013) (O96013 whole entry): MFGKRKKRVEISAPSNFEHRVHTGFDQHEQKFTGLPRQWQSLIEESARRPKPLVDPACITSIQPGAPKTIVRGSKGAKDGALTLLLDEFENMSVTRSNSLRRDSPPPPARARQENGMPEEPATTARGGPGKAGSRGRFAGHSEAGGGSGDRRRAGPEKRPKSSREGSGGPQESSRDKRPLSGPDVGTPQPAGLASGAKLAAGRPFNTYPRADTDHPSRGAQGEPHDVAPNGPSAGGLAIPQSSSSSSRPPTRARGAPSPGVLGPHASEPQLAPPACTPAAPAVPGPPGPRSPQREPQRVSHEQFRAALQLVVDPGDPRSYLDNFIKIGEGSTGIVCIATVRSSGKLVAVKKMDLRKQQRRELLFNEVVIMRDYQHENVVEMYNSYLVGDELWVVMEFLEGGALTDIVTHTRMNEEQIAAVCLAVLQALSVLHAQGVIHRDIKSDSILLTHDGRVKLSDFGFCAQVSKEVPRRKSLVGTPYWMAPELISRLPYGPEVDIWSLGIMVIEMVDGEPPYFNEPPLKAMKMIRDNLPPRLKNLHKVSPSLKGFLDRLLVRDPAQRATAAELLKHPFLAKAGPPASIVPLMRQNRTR
Chain of human kinome (Homo sapiens, UniProt Q8TBX8) (Q8TBX8 whole entry): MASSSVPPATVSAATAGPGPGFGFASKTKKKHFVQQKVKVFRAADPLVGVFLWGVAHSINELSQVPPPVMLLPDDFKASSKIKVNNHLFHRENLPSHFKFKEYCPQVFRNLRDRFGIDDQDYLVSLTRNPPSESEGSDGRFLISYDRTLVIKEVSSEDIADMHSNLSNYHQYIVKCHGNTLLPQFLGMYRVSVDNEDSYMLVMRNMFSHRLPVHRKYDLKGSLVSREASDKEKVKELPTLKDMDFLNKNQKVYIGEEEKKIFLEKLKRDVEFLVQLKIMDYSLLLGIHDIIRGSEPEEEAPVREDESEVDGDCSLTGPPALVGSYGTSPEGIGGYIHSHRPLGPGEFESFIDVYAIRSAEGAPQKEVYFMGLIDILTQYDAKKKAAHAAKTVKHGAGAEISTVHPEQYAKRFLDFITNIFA
Chain of human kinome (Homo sapiens, UniProt P29597) (P29597 whole entry): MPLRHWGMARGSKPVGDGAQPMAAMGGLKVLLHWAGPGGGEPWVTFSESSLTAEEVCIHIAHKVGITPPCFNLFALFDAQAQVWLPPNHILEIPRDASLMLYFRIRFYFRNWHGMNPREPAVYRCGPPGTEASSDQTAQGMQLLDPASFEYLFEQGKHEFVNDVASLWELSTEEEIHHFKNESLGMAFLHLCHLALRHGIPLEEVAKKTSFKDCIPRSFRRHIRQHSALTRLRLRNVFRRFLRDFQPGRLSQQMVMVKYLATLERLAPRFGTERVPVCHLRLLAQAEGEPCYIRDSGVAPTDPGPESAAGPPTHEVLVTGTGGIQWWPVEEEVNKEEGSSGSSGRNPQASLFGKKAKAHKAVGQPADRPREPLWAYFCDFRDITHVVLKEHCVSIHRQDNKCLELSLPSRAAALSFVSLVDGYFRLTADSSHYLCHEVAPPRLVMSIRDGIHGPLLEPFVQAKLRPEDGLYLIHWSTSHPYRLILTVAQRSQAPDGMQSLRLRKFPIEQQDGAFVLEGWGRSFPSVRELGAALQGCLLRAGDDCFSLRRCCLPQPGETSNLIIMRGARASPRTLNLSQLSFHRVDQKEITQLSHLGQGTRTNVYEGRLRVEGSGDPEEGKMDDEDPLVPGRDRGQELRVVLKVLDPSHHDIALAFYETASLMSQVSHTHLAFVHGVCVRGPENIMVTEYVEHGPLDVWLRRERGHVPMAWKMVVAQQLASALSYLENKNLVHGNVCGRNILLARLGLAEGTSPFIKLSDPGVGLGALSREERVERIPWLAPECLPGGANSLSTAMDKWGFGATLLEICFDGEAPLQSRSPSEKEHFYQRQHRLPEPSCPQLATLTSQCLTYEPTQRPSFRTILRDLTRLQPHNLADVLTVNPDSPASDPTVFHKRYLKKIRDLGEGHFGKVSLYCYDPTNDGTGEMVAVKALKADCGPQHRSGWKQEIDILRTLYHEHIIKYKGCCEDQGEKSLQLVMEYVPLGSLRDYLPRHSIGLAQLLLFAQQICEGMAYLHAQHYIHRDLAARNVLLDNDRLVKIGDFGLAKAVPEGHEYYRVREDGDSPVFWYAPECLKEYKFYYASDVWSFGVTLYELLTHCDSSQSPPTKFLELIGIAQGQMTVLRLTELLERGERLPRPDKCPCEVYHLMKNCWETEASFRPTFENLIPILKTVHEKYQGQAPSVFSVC
Chain of human kinome (Homo sapiens, UniProt O75582) (O75582 whole entry): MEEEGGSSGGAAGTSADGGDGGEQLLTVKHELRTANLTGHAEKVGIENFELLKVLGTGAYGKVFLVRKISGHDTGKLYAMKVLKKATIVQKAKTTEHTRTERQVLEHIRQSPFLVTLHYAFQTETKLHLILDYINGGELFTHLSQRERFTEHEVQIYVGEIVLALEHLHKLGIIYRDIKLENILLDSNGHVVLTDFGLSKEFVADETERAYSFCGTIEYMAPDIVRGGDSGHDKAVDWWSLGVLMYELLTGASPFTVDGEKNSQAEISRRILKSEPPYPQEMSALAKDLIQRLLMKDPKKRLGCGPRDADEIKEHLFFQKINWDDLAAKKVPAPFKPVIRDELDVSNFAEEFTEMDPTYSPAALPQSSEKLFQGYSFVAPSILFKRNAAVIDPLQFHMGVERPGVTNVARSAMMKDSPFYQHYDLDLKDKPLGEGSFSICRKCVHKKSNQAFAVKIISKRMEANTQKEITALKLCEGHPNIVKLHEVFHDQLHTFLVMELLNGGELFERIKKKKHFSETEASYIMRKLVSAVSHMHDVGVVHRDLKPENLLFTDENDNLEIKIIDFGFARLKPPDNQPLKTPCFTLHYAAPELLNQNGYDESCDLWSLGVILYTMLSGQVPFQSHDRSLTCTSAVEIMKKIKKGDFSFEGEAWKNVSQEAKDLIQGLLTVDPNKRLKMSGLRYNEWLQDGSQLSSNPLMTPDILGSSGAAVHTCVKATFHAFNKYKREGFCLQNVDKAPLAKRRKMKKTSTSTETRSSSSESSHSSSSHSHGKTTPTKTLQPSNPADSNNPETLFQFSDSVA
Chain of human kinome (Homo sapiens, UniProt P36507) (P36507 whole entry): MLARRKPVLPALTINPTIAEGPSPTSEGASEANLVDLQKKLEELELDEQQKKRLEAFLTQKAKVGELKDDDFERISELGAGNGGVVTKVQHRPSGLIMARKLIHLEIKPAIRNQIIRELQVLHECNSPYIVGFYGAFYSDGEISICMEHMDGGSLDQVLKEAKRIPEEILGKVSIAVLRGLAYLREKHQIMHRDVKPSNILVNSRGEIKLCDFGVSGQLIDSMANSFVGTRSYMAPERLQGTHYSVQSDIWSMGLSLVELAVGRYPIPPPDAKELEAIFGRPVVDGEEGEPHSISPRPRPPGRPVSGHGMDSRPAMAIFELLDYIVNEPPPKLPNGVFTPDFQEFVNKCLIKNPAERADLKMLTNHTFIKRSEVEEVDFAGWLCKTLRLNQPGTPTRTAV

COc1cc(F)ccc1-c1cc(Nc2cc(CS(C)(=N)=O)ccn2)ncc1F (stereo not drawn) [VIP152]
remaining binding at 0.1 µM (human kinome [1]): 100% | remaining binding at 0.1 µM (human kinome [2]): 100% | remaining binding at 0.1 µM (human kinome [3]): 99% | remaining binding at 1 µM (human kinome [4]; kinase RPS6KA5(Kin.Dom.1-N-terminal) (Entrez RPS6KA5)): 100% | remaining binding at 1 µM (human kinome [4]; kinase RPS6KA5(Kin.Dom.2-C-terminal) (Entrez RPS6KA5)): 100% | remaining binding at 0.1 µM (human kinome [5]; PDPK1, 100 nM): 100% | remaining binding at 1 µM (human kinome [5]; kinase PDPK1 (Entrez PDPK1), compound concentration 1000 nM): 100% | remaining binding at 0.1 µM (human kinome [6]): 100% | remaining binding at 0.1 µM (human kinome [7]): 100% | remaining binding at 0.1 µM (human kinome [8]): 100% | remaining binding at 0.1 µM (human kinome [9]): 66% | remaining binding at 1 µM (human kinome [10]): 67% | remaining binding at 0.1 µM (human kinome [11]): 100% | remaining binding at 0.1 µM (human kinome [12]; PAK4, 100 nM): 100% | remaining binding at 1 µM (human kinome [12]; kinase PAK4 (Entrez PAK4), compound concentration 1000 nM): 89% | remaining binding at 1 µM (human kinome [13]; kinase TYK2(JH1domain-catalytic) (Entrez TYK2)): 44% | remaining binding at 1 µM (human kinome [13]; kinase TYK2(JH2domain-pseudokinase) (Entrez TYK2)): 4.8% | remaining binding at 0.1 µM (human kinome [14]): 100% | remaining binding at 0.1 µM (human kinome [15]): 100% | remaining binding at 0.1 µM (human kinome [16]): 100% | remaining binding at 1 µM (human kinome [17]): 90% | remaining binding at 0.1 µM (human kinome [18]; PIP5K2C (Entrez PIP4K2C), 100 nM): 52% | remaining binding at 1 µM (human kinome [18]; kinase PIP5K2C (Entrez PIP4K2C), compound concentration 1000 nM): 82% | remaining binding at 0.1 µM (human kinome [19]): 100% | remaining binding at 0.1 µM (human kinome [20]): 100% | remaining binding at 0.1 µM (human kinome [21]): 100% | remaining binding at 0.1 µM (human kinome [22]; PIK3CA(E545A), 100 nM): 71% | remaining binding at 1 µM (human kinome [22]; kinase PIK3CA(E545A) (Entrez PIK3CA), compound concentration 1000 nM): 98% | remaining binding at 1 µM (human kinome [23]): 38% | remaining binding at 0.1 µM (human kinome [24]): 100% | remaining binding at 0.1 µM (human kinome [25]): 100% | remaining binding at 0.1 µM (human kinome [26]): 100% | remaining binding at 0.1 µM (human kinome [27]): 100% | remaining binding at 1 µM (human kinome [28]): 80% | remaining binding at 0.1 µM (human kinome [29]; PKAC-alpha (Entrez PRKACA), 100 nM): 97% | remaining binding at 1 µM (human kinome [29]; kinase PKAC-alpha (Entrez PRKACA), compound concentration 1000 nM): 100%
